According to patent US20200060994A1, “METHODS OF TREATING PSYCHIATRIC STRESS DISORDERS” (Yeda Research and Development Co. Ltd., priority 2017, published 2020):
Entries after “also recorded” stand apart in the source; their conditions may differ. Structures can show the parent of a compound that is named as a salt.

Experiments:
wild type C57BL6 mice [1] = test: Open field (OF) test, wild type mice; settings: for anxiolytic properties / behavior in the OF test: 1 hour following i.p. injection vs vehicle, Sitosterol 100 mg/kg, Alvespimycin 75 mg/kg, Fluspirilene 10 mg/kg; for number of rearings in the OF center: larger cohort n=10 mice per group, P<0.01
wild type C57BL6 mice [2] = test: Elevated plus maze (EPM) test, wild type mice; format: in vivo, mouse
Method: (§1) All drugs were administered by intraperitoneal injection (I.P.). […] A. CNS Drug Rev.
(§2) The EPM contains two open arms and two enclosed ones connected by a central square. Exploration on the open arms is reduced in high anxiety states while it is increased in low anxiety states [Walf, A. A. & Frye, C. A. Nat. Protoc. 2, 322-8 (2007)]. Mice were placed on the central platform facing one of the “open” arms to initiate a 5-minutes test session and the time spent in each arm was measured. The test was performed under 7 lx and 65 dB white noise. The number of entries into, the time spent/distance on the open arms and the percentage of the open arm entries compared with total number of arm entries were recorded using the VideoMot2 software (TSE System, Germany) or the Ethovision XT11 software (Noldus Information Technology, The Netherlands).

importin α5 KO mice [3] = test: Elevated plus maze (EPM) test, importin α5 KO mice; format: in vivo, mouse; settings: PF-543 10 mg/kg i.p.
Method: as §1, §2

importin α5 KO mice [4] = test: Open field (OF) test, importin α5 KO mice; format: in vivo, mouse; settings: FG-7142 5 mg/kg intraperitoneally, OF after 30 min
Method: as §1

[5] = S1P receptor agonist 0.1 mg/kg i.p., C57BL6, vs vehicle
[6] = S1P receptor agonist 0.1 mg/kg i.p., C57Bl6
[7] = β-sitosterol 100 mg/kg, 1 hour following injection, vs vehicle
[8] = β-sitosterol 100 mg/kg IP, 1 and 6 hours following injection, vs vehicle

SMILES: O=C1NCN(c2ccccc2)C12CCN(CCCC(c1ccc(F)cc1)c1ccc(F)cc1)CC2 [fluspirilene]
- anxiolytic properties / behavior in the OF test (wild type C57BL6 mice [1]): anxiolytic effect

SMILES: Cc1cc(CS(=O)(=O)c2ccccc2)cc(OCc2ccc(CN3CCC[C@@H]3CO)cc2)c1 [PF-543]
- anxiety-related behavior of WT mice in the EPM (wild type C57BL6 mice [2]; PF-543 10 mg/kg i.p., WT mice): did not influence
- distance travelled in the open arms (importin α5 KO mice [3]; importin α5 KO animals): significantly decreased
- time spent in the open arms (importin α5 KO mice [3]; importin α5 KO animals): significantly decreased
- anxiolytic phenotype of importin α5 KO mice in the EPM (importin α5 KO mice [3]; 10 mg/kg): attenuated; also recorded: reverse the anxiolytic response of importin α5 KOs towards WT values

SMILES: CNCCC(Oc1ccc(C(F)(F)F)cc1)c1ccccc1 (stereo not drawn) [fluoxetine, Fluoxetine hydrochloride]
- anxiolytic effect in the OF test, dose-response (wild type C57BL6 mice [1]; fluoxetine 2, 5, 10 or 20 mg/kg vs vehicle, 10 minutes OF test): dose dependent anxiolytic effect
- anxiolytic effects in the OF test (wild type C57BL6 mice [1]; fluoxetine doses of 5 mg/kg and below): no apparent effect
- anxiolytic effects in the OF test (wild type C57BL6 mice [1]; fluoxetine doses of 10 mg/kg and above): significant anxiolytic effects

SMILES: CO[C@H]1/C=C\C=C(/C)C(=O)NC2=CC(=O)C(NCCN(C)C)=C(C[C@@H](C)C[C@H](OC)[C@H](O)[C@@H](C)/C=C(\C)[C@@H]1OC(N)=O)C2=O [alvespimycin]
- anxiolytic properties / behavior in the OF test (wild type C57BL6 mice [1]): marked yet variable differences; also recorded: anxiolytic effect
- rearing activity in the center (wild type C57BL6 mice [1]; alvespimycin 75 mg/kg i.p., 1 hour, single dosage regime, FIG. 12A): reaching statistical significance
- motor performances in the OF test (wild type C57BL6 mice [1]; alvespimycin, independent cohort n=10, FIG. 12B): without adverse effects
- number of rearings in the OF center (wild type C57BL6 mice [1]; alvespimycin, FIG. 12B): 6.2±2.07
- number of rearings in the OF center (wild type C57BL6 mice [1]; alvespimycin, FIG. 12B, listed as Alvespimycin): increase
- time spent in the center area (wild type C57BL6 mice [1]; alvespimycin, n=10 per group, FIG. 12B, P=0.052): increased
- latency to access the center area (wild type C57BL6 mice [1]; alvespimycin, n=10 per group, FIG. 12B, P=0.08): increased
- number of visit in the center area (wild type C57BL6 mice [1]; alvespimycin, n=10 per group, FIG. 12B, P=0.09): increased

SMILES: CNC(=O)c1cc2c(cn1)[nH]c1ccccc12 [FG-7142]
- distance travelled in the center of the OF (importin α5 KO mice [4]): significantly decreases
- number of rearing events in the center (importin α5 KO mice [4]): significantly decreases
- anxiolytic phenotype of importin α5 KO mice in the OF test (importin α5 KO mice [4]; 5 mg/kg): reversed anxiolysis

SMILES: CCc1cc(/C(C)=N/OCc2ccc(C3CCCCC3)c(C(F)(F)F)c2)ccc1CN1CC(C(=O)O)C1 [siponimod]
- time spent in the open arms of the EPM (wild type C57BL6 mice [2]; [5]): significant increase
- anxiety levels in the EPM assay (wild type C57BL6 mice [2]; [6]): markedly reduced
- distance in the open arms of the EPM (wild type C57BL6 mice [2]; siponimod 0.1 mg/kg i.p. every 3 days during 4 weeks, vs vehicle): significant increase
- distance travelled in the center of the OF (wild type C57BL6 mice [1]; [5]): significant increase
- time spent in the center of the OF (wild type C57BL6 mice [1]; [5]): significant increase
- anxiety levels in the OF assay (wild type C57BL6 mice [1]; [6]): markedly reduced
- center/border ratio (for the exploration time) in the OF (wild type C57BL6 mice [1]; siponimod 0.1 mg/kg i.p. every 3 days during 4 weeks, vs saline): higher

SMILES: CC[C@H](CC[C@@H](C)[C@H]1CC[C@H]2[C@@H]3CC=C4C[C@@H](O)CC[C@]4(C)[C@H]3CC[C@]12C)C(C)C [β-sitosterol]
- distance in the open arms of the EPM (wild type C57BL6 mice [2]; [7]): significant increase
- time spent in the open arms of the EPM (wild type C57BL6 mice [2]; [7]): significant increase
- anxiolytic properties / behavior in the OF test (wild type C57BL6 mice [1]): anxiolytic effect
- distance travelled in the OF center (wild type C57BL6 mice [1]; [8]): increasing
- number of visits in the OF center (wild type C57BL6 mice [1]; [8]): increasing
- time course of anxiolytic effects in the OF test (wild type C57BL6 mice [1]; β-sitosterol by injection): apparent 1 hour post-injection and persisted until 6 hours following injection
- anxiolytic effect in the OF test, dose response (wild type C57BL6 mice [1]; β-sitosterol intraperitoneally at the indicated doses, 1 hour following injection): clear dose-dependent anxiolytic effects; also recorded: reaching significance for the highest dose tested
